SMILES strings stand for the structures. Activity calls are given as the source filed them. The calls are words filed in the database; no cut-off is given here.

Data set [1] deals with BMDM. Nature of the data set: Cytotoxicity against C57BL/6J mouse Bone marrow macrophage cells assessed as reduction in cell viability at < 10 uM after 48 hrs by CCK-8 assay. It is filed as cell-based.
For data set [2], the system named is BMDM. Nature of the data set: Inhibition of RANKL/M-CSF-induced osteoclastogenesis in C57BL/6J mouse Bone marrow macrophage cells assessed as decrease in number of osteoclasts at 0.1 to 1 uM compound for every 2 days and measured after 7 days by TRAP staining based light microscopic method. It is filed as functional, cell-based.
Data set [3] concerns BMDM. Nature of the data set: Inhibition of RANKL/M-CSF-induced osteoclastogenesis in C57BL/6J mouse Bone marrow macrophage cells assessed as decrease in area of osteoclasts at 0.1 to 1 uM compound for every 2 days and measured after 7 days by TRAP staining based light microscopic method. The format is functional, cell-based.
The subject of data set [4] is BMDM. Nature of the data set: Effect on RANKL/M-CSF-induced osteoclastogenesis in C57BL/6J mouse Bone marrow macrophage cells assessed as increase in number of osteoclasts at 1 uM compound for every 2 days and measured after 7 days by TRAP staining based light microscopic method. The format is functional, cell-based.
The subject of data set [5] is BMDM. The data set is described as follows: Effect on RANKL/M-CSF-induced osteoclastogenesis in C57BL/6J mouse Bone marrow macrophage cells assessed as increase in number of osteoclasts at 0.1 uM compound for every 2 days and measured after 7 days by TRAP staining based light microscopic method. It is filed as functional, cell-based.
Data set [6] relates to BMDM. Nature of the data set: Effect on RANKL/M-CSF-induced osteoclastogenesis in C57BL/6J mouse Bone marrow macrophage cells assessed as increase in number of osteoclasts at 0.1 to 1 uM compound for every 2 days and measured after 7 days by TRAP staining based light microscopic method. It is filed as functional, cell-based.
The subject of data set [7] is BMDM. The data set is described as follows: Effect on RANKL/M-CSF-induced osteoclastogenesis in C57BL/6J mouse Bone marrow macrophage cells assessed as increase in area of osteoclasts at 0.1 uM compound for every 2 days and measured after 7 days by TRAP staining based light microscopic method. The format is functional, cell-based.

Consider `CO[C@@H]1C(=O)CC[C@](O)(CCl)[C@@]1(O)[C@@]1(C)O[C@@H]1CC=C(C)C`, for which, in data set [1], the Activity result is “Non-Toxic”. Further, the inhibition entry in data set [2] and in data set [3] was “Active” throughout.

On to `CC(C)=CC[C@H]1O[C@]1(C)[C@]1(CO)OC(=O)CC[C@]1(O)CCl`, for which the Activity entry in data set [1] is “Non-Toxic”. The outcome in data set [4] was Active.

Take `C=C1CC[C@@]2(O)C[C@@H]1[C@](C)(O)C(=O)[C@H]2C=C(C)C`: in data set [1], the Activity result is recorded as “Non-Toxic”.

`CO[C@@H]1C(=O)CC[C@]2(CO2)[C@@]1(O)[C@@]1(C)O[C@@H]1CC=C(C)C` [OVALICIN]: the Activity entry in data set [1] is given as “Non-Toxic”.

In the case of `CO[C@@H]1[C@H](O)CC[C@]2(O)C[S+]([O-])[C@@H](CC=C(C)C)[C@](C)(O)[C@@]12O` (some centres undefined), the Activity result in data set [1] was “Non-Toxic”.

In the case of `CO[C@@H]1C(=O)CC[C@]2(O)C[S+]([O-])[C@@H](CC=C(C)C)[C@](C)(O)[C@@]12O` (some centres undefined), the Activity entry in data set [1] is recorded as “Non-Toxic”.

`CC[C@@H]1O[C@]2(C[C@H](O)C1(C)C)OC(=O)C[C@@H]2NC(C)=O`: in data set [1], the Activity result was “Non-Toxic”.

With `CC/C=C\[C@H](O)[C@H](O)C1=C(C)C(=O)[C@]2(O1)C(=O)N[C@@](OC)(C(=O)c1ccccc1)[C@@H]2O` [PSEUROTIN A], in data set [1], the Activity entry is reported as “Non-Toxic”. Also, the outcome in data set [5] was Active.

As for `C=C1CCC2(O)CC1C2(C)[C@H](O)CC=C(C)C` (some centres undefined), the Activity entry in data set [1] is “Non-Toxic”.

In the case of `CO[C@@H]1C(=O)CC[C@]2(O)CO[C@@H](CC=C(C)C)[C@](C)(O)[C@@]12O`, in data set [1], the Activity entry was “Non-Toxic”. For the same compound, the outcome in data set [6] and in data set [7] was Active.

Take `C=C1CC[C@@]2(O)C[C@@H]1[C@@](C)(O)C(=O)[C@H]2C=C(C)C`: in data set [1], the Activity entry is “Non-Toxic”. In addition, the outcome in data set [6] and in data set [7] was Active.

Source of the values: ChEMBL document CHEMBL4334440, “Osteoclastogenesis Regulation Metabolites from the Coral-Associated Fungus Pseudallescheria boydii TW-1024-3” (J Nat Prod, 2019).
